Data published in patent US20260166021A1, “POLYMORPHIC FORMS OF A SOLUBLE EPOXIDE HYDROLASE INHIBITOR AND FORMULATIONS THEREOF” (EicOsis, LLC, priority 2022, published 2026).

Experiments:
[1] = Thermal gravimetric analysis (TGA); type: physicochemical
Description: Thermal gravimetric analyses were performed on each sample “as is.” Unless otherwise noted, samples were weighed in an alumina crucible and analyzed from 30-350° C. at 10° C./min.
Form C weight loss at 39° C.-50° C. likely reflected methanol loss.

[2] = Differential scanning calorimetry (DSC): heat of fusion, thermal events; type: physicochemical; conditions: for thermodynamic stability (from heat of fusion) / Heat of fusion: DSC; for thermodynamic stability (from heat of fusion): TABLE 10; for Heat of fusion: scaled-up polymorphs, measured during conversion from Form C
Description: Differential scanning calorimetry analyses were performed on each sample “as is.” Unless otherwise specified, samples were weighed in an aluminum pan, covered with a pierced lid, and then crimped and analyzed from 30-300° C. ramped at 10° C./min.
The DSC data were used to determine the heat of fusion for Forms A, B, D, and F, based on their heats of fusion as measured during conversion from Form C.

[3] = Thermal stress studies at 60° C. (XRD, HPLC); type: physicochemical; conditions: for Day 1 % AUC / Day 7 % AUC / Initial % AUC: HPLC; for Initial % AUC: before thermal stress
Description: Briefly, 20 mg of solid Form A, B, C, D, E, F, G, and I were weighed into 7 mL glass vials. The vials were covered with tissue and stored in ovens set to 60° C. and ambient pressure. Following 1 and 7 days incubation, solid was collected for XRD analysis.
As shown in these figures, Forms B and C converted to Forms D and A, respectively, while the other forms remained unchanged.
The starting materials, intermediates (1 day of thermal stress), and products (7 days of thermal stress) were analyzed by H PLC. Representative chromatograms from the Form D thermal stress analyses are shown in FIGS. 81-83 (starting material, 1 day, and 7 day samples, respectively).

[4] = Competitive slurry experiments (solvent-mediated polymorph transformation, XRD); type: physicochemical; conditions: room temperature, 1 and 7 days
Description: Polymorph stability and interconversions were analyzed with competitive slurry experiments. The competitive slurry (solvent-mediated transformation) experiments were performed on Forms A, B, D, E, F, G, and I generated through scaled-up crystallization (summarized in TABLE 11). […] The suspensions were aliquoted at one day and seven days and filtered to isolate the solids. Remaining solid was analyzed by XRD without drying.
In FIG. 66, the second spectrum from the top corresponds to Form E. These XRD data confirmed that Patterns C, K, and D were afforded in these solvents.
In order to further confirm the rank of stability order of the selected forms and extend the temperature range of stability relationship up to 70° C. covering potential API process conditions, binary form slurries were conducted with starting mixtures of (1) Forms A and D, and (2) Forms D and E. The resultant polymorphs were characterized with XRD after 1 and 7 days, the results of which analyses are shown in FIGURE S 67-68 and summarized in TABLE 13. Pattern D stood out from both binary mixture slurries of A & D and of D & E after seven-day stirring at the elevated temperature.
Additional single form slurry experiments were conducted on Forms A, D, and E in either water or heptane at room temperature. […] In agreement with prior competitive slurry experiments, Form D was stable at room temperature in n-heptane. Pattern E was obtained from slurries starting with Forms A and E in n-heptane. As expected, Form C was formed from the Pattern E slurry in water.

[5] = Crystallization of Formula (I) in single- and binary-solvent systems (resultant XRD pattern)
Description: Formula (I) crystallization was first analyzed in single-solvent systems lacking antisolvent. […] Fast cooling was performed by placing the vials in a 4° C. refrigerator for 24 hours, while slow cooling was performed by decreasing the temperatures of the vials by 20° C./h with stirring. The resulting solids were isolated by centrifuge filtration through […] centrifuge filters. When solids were not produced, the solution was evaporated under nitrogen as an additional attempt to obtain solid. All obtained solids were analyzed by XRD to determine the solid pattern.
Formula (I) recrystallization was then tested with binary-solvent systems containing water, n-heptane, or c-hexane as antisolvent. […] Anti solvents were added drop-wise at the same temperature until precipitate was observed or the vial volume was reached (˜7 mL). The vials were quickly cooled to 4° C. or slowly cooled by 20° C./hour as in the single-solvent recrystallizations. The resulting solids were isolated by centrifuge filtration. The samples without precipitation were evaporated to dryness under a gentle stream of nitrogen gas as an additional attempt to obtain solid. All obtained solids were analyzed by XRD to determine the solid form. […]

Compound: CC[C@H](C)C(=O)N1CCC(NC(=O)Nc2ccc(OC(F)(F)F)c(F)c2)CC1 [C]
- TGA: wt change ([1]; at range 39° C.-50° C.): 1.4% wt change at
- DSC Thermal Events, Endo: dehydration of bound water of pattern C [2]: 73° C.: dehydration of bound water of
- DSC Thermal Events, Endo: melting of pattern A [2]: 109 °C melting of pattern A
- DSC Thermal Events, Endo: melting of pattern F [2]: 147 °C melting of pattern F
- DSC Thermal Events, Exo: crystallization of pattern F [2]: 114 °C crystallization of pattern F

Compound: CC[C@H](C)C(=O)N1CCC(NC(=O)Nc2ccc(OC(F)(F)F)c(F)c2)CC1 [E]
- TGA: wt change ([1]; at range 116° C.-119° C.): 4.7% wt change at
- DSC Thermal Events, Endo: dehydration of bound water of pattern E [2]: 121 °C dehydration of bound water of
- DSC Thermal Events, Endo: melting of pattern D [2]: 142 °C melting of pattern D
- DSC Thermal Events, Endo: melting of pattern F [2]: 148 °C melting of pattern F
- DSC Thermal Events, Exo: crystallization of pattern D [2]: 126 °C crystallization of pattern D
- DSC Thermal Events, Exo: crystallization of pattern F [2]: 144 °C crystallization of pattern F

Compound: CC[C@H](C)C(=O)N1CCC(NC(=O)Nc2ccc(OC(F)(F)F)c(F)c2)CC1 [Form A, (S)-1-(3-fluoro-4-(trifluoromethoxy)phenyl)-3-(1-(2-methylbutanoyl)piperidin-4-yl)urea]
- TGA: wt change ([1]; below 150° C.): No wt change below
- DSC Thermal Events, Endo: melting of pattern A [2]: 113 °C melting of pattern A
- DSC Thermal Events, Endo: melting of pattern D [2]: 141 °C melting of pattern D (shoulder)
- DSC Thermal Events, Endo: melting of pattern F [2]: 148 °C meting of patter F
- DSC Thermal Events, Exo: crystallization of pattern D [2]: 127 °C crystallization of pattern D
- DSC Thermal Events, Exo: crystallization of pattern F [2]: 117 °C crystallization of pattern
- thermodynamic stability (from heat of fusion) [2]: thermodynamically stable
- Heat of fusion [2]: 29.73
- Day 1 % AUC ([3]; 60° C.): 100%
- Day 7 % AUC ([3]; 60° C.): 100%
- Initial % AUC [3]: 100%
- single form slurry in n-heptane: resultant polymorph [4]: Pattern E

Compound: CC[C@H](C)C(=O)N1CCC(NC(=O)Nc2ccc(OC(F)(F)F)c(F)c2)CC1 [Form B, (S)-1-(3-fluoro-4-(trifluoromethoxy)phenyl)-3-(1-(2-methylbutanoyl)piperidin-4-yl)urea]
- TGA: wt change ([1]; below 150° C.): No wt change below
- DSC Thermal Events, Endo: melting of pattern B [2]: 146 °C melting of pattern B
- DSC Thermal Events, Endo: melting of pattern D [2]: 141 °C melting of pattern D
- thermodynamic stability (from heat of fusion) [2]: thermodynamically stable
- Heat of fusion ([2]; listed as B): 53.14
- conversion to Form D ([3]; 60° C., following one day of incubation): 100%

Compound: CC[C@H](C)C(=O)N1CCC(NC(=O)Nc2ccc(OC(F)(F)F)c(F)c2)CC1 [Form E, (S)-1-(3-fluoro-4-(trifluoromethoxy)phenyl)-3-(1-(2-methylbutanoyl)piperidin-4-yl)urea]
- single form slurry in n-heptane: resultant polymorph [4]: Pattern E
- single form slurry in water: resultant polymorph ([4]; water): Form C

Compound: CC[C@H](C)C(=O)N1CCC(NC(=O)Nc2ccc(OC(F)(F)F)c(F)c2)CC1 [Form F, (S)-1-(3-fluoro-4-(trifluoromethoxy)phenyl)-3-(1-(2-methylbutanoyl)piperidin-4-yl)urea]
- DSC Thermal Events, Endo: melting of pattern F [2]: 150 °C melting of pattern F
- Heat of fusion ([2]; listed as F): 57.06
- Day 1 % AUC ([3]; 60° C.): 100%
- Day 7 % AUC ([3]; 60° C.): 100%
- Initial % AUC [3]: 100%

Compound: CC[C@H](C)C(=O)N1CCC(NC(=O)Nc2ccc(OC(F)(F)F)c(F)c2)CC1 [Formula (I) Form C]
- Formula (I) Product Form ([5]; Acetone (0.1)/n-Heptane (0.4), 50° C., Slow, ppt/evaporate): B + E
- Formula (I) Product Form ([5]; DMSO (0.1)/Water (0.05), 70° C., Slow, ppt/filtered): D + F
- Formula (I) Product Form ([5]; EtOH (0.1)/c-Hexane (6), 70° C., Slow, clear/): F + H
- Formula (I) Product Form ([5]; IPA (0.1)/c-Hexane (2), 70° C., Fast, ppt/filtered): H + F
- Formula (I) Product Form ([5]; NMP (0.1)/c-Hexane (6), 70° C., Slow, clear/evaporate): D + F

Compound: CC[C@H](C)C(=O)N1CCC(NC(=O)Nc2ccc(OC(F)(F)F)c(F)c2)CC1 [G]
- DSC Thermal Events, Endo: melting of pattern G [2]: 143 °C melting of pattern G
- Day 7 XRD ([3]; 60° C., ambient pressure): G/L

Compound: CC[C@H](C)C(=O)N1CCC(NC(=O)Nc2ccc(OC(F)(F)F)c(F)c2)CC1 [H]
- TGA: wt change ([1]; at 83° C.): No detectable wt
- TGA: wt change ([1]; at range […] C.-126° C.): 7.2% wt change at
- DSC Thermal Events, Endo: dehydration of bound water of pattern C [2]: 83° C.: dehydration of bound water of
- DSC Thermal Events, Endo: desolvation of pattern H [2]: 129 °C desolvation of pattern H
- DSC Thermal Events, Endo: melting of pattern A [2]: 140 °C melting of pattern A
- DSC Thermal Events, Endo: melting of pattern F [2]: 148 °C melting of pattern F
- DSC Thermal Events, Exo: crystallization of pattern D [2]: 133 °C crystallization of pattern D
- DSC Thermal Events, Exo: crystallization of pattern F [2]: 142 °C crystallization of patter F

Compound: CC[C@H](C)C(=O)N1CCC(NC(=O)Nc2ccc(OC(F)(F)F)c(F)c2)CC1 [I]
- DSC Thermal Events, Endo: melting of pattern I [2]: 144 °C melting of pattern I

Compound: CC[C@H](C)C(=O)N1CCC(NC(=O)Nc2ccc(OC(F)(F)F)c(F)c2)CC1 [J]
- TGA: wt change ([1]; at range 75° C.-82° C.): 3.7% wt change at
- TGA: wt change ([1]; at range 116° C.-[…] C.): 4.6% wt change at
- DSC Thermal Events, Endo: dehydration of bound water/desolvation of pattern J or another unknown pattern [2]: 129 °C dehydration of bound
- DSC Thermal Events, Endo: melting of pattern B [2]: 146 °C melting of pattern B
- DSC Thermal Events, Endo: melting of pattern F [2]: 149 °C melting of pattern F
- DSC Thermal Events, Endo: melting of unknown pattern [2]: 140 °C melting of unknown
- DSC Thermal Events, Exo: crystallization of unknown pattern [2]: 103 °C crystallization of unknown
- DSC Thermal Events, Endo: dehydration of bound water/desolvation of pattern J ([2]; major peak with a shoulder): 91 °C dehydration of bound

Compound: CC[C@H](C)C(=O)N1CCC(NC(=O)Nc2ccc(OC(F)(F)F)c(F)c2)CC1 [K]
- TGA: wt change ([1]; at range 120° C.-[…] C.): 5.0% wt change at
- DSC Thermal Events, Endo: dehydration of bound water/desolvation of pattern K [2]: 127 °C dehydration of bound water/
- DSC Thermal Events, Endo: melting of pattern D [2]: 142 °C melting of pattern D
- DSC Thermal Events, Endo: melting of pattern F [2]: 148 °C melting of pattern F
- DSC Thermal Events, Exo: crystallization of pattern D [2]: 130 °C crystallization of pattern D

Compound: CC[C@H](C)C(=O)N1CCC(NC(=O)Nc2ccc(OC(F)(F)F)c(F)c2)CC1 [L]
- TGA: wt change ([1]; at range 107° C.-[…] C.): 0.4% wt change at
- TGA: wt change ([1]; at range […] C.-135° C.): 0.3% wt change at
- DSC Thermal Events, Endo: melting of pattern D [2]: 141 °C melting of pattern D
- DSC Thermal Events, Endo: melting of pattern F [2]: 148 °C melting of pattern F
- DSC Thermal Events, Exo: crystallization of pattern D [2]: 138 °C crystallization of pattern D
- DSC Thermal Events, Exo: crystallization of pattern F [2]: 143 °C crystallization of patter F

Compound: CC[C@H](C)C(=O)N1CCC(NC(=O)Nc2ccc(OC(F)(F)F)c(F)c2)CC1 [Lot 3]
- Endotherm (likely dehydration of bound water) ([2]; DSC thermogram of lot): 84 °C
- Endotherm (melting of Form A) ([2]; DSC thermogram of lot): 111 °C (melting of Form A),
- Exotherm (crystallization of Form B) ([2]; DSC thermogram of lot): 117 °C (crystallization of
